For 13 compounds, IC50 results are on record in patent US20240218022A1, “ANTI-VISTA MACROCYCLIC PEPTIDES AND COMPOSITIONS” (BRISTOL-MYERS SQUIBB COMPANY, priority 2022, published 2024).

This assay addresses T1, mouse VISTA (mVISTA) (Mus musculus, UniProt Q9D659).
T1 construct: expressed in transfected cells; host or cells: Human embryonic kidney 293T cells
T1 sequence (Q9D659 33-308): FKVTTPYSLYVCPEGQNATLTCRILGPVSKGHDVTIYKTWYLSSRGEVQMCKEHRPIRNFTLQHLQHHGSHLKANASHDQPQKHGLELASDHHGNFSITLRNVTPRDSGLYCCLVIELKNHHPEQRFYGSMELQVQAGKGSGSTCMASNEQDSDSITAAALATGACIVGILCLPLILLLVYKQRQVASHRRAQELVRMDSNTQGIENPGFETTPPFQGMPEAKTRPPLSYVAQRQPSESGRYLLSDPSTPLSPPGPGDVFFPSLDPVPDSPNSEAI
Put plainly: Cell-Based Binding High-Content Assay For mVISTA (HC CBA mVISTA). To be noted: cell-based binding high-content assay. On the procedure:
Cell-Based Binding High-Content Assay For mVISTA
Human embryonic kidney 293T cells (293T) expressing mouse VISTA (mVISTA) were used for the assessment of compounds competing with the binding of a biotinylated peptide. Cryopreserved cells were thawed in a 37° C. water bath and incubated overnight at a 37° C./5% CO2 incubator in assay culture media DMEM (Life Technologies Inc. Cat. No. 11995-126) supplemented with 10% (v/v) FBS (Sigma, Cat. No. F4135), 1× Penicillin/Streptomycin (Life Technologies Inc. Cat. No. 15140-122). Cells were harvested, washed and resuspended in DMEM media […]. To test compounds under “no-wash” condition, cells were seeded into PDL-coated 384 well plates (Corning, Cat. No. 356663) at 4,000 cells/20 μL. After incubating the cell plates for two hours at a 37° C./5% CO2 incubator, 125 nL of test compound was added using an ECHO. Alternatively, to test compounds under “wash” condition, test compounds were added first, followed by addition of 20 μL cells at a density of 4000 cells/well. After incubation for an hour, the media was removed, followed by addition of 20 μL of fresh media ( ), and plates were then incubated for another hour. To plates either under “no wash” or “wash” condition, the biotinylated peptide was added to a final concentration of 2 nM, and plates were incubated at room temperature for 30 minutes. Fifteen (15) μL of Alexa 647 conjugated Streptavidin (Life Tech, Cat. No. S21374), suspended at 2 μg/ml in media, was added to the assay plate and incubate for 30 minutes. Cells were fixed by adding 15 μL of formaldehyde at a final concentration of 8% (w/v) (Sigma Cat. No. 252549), 20 μg/mL Hoechst (Thermo Scientific Cat. No. 62249) in PBS for 10 minutes at room temperature. The plates were washed 3 times in dPBS, sealed, and read on a CellInsight NXT High Content Screening Platform IC903000 (Thermo Scientific). The 50% effective concentration (IC50) was calculated using the four-parameter logistic formula y=A+((B−A)/(1+((C/x)^D))), where A and B denote minimal and maximal % inhibition, respectively, C is the EC50, D is hill slope and x represent compound concentration.

Where [1] appears, read: mVISTA, the 16th table, read-out: HC CBA mVISTA IC50.

Read-outs that look alike come from different tables or passages of the source. Positions of bridges follow the written chain, without caps; N, C: chain ends. Non-standard residues stand in square brackets, D forms with d. Residues, ends and D or L forms follow the SMILES beside them. 2Nal = N[C@@H](Cc1ccc2ccccc2c1)C(=O)O; Cit = NC(=O)NCCC[C@H](N)C(=O)O; Ahp(2) = CCCCC[C@H](N)C(=O)O; NMeNle = CCCC[C@H](NC)C(=O)O; NHexGly = CCCCCCNCC(=O)O; Nle = CCCC[C@H](N)C(=O)O; Orn = NCCC[C@H](N)C(=O)O; NBuGly = CCCCNCC(=O)O

One may read the IC50 as the midpoint of a concentration-inhibition curve. Regarding `CCCCCCN1CC(=O)N[C@@H](Cc2ccc(O)cc2)C(=O)N[C@@H](CCCC)C(=O)N[C@@H](CC(N)=O)C(=O)N[C@@H](CCCNC(=N)N)C(=O)N(C)[C@@H](CCCC)C(=O)N[C@@H](CCCCC)C(=O)N2CCC[C@H]2C(=O)N[C@@H](C(C)C)C(=O)N[C@@H](CO)C(=O)N[C@H](C(=O)NCCOCCOCC(=O)N[C@@H](CC(=O)O)C(=O)NCCOCCOCC(=O)NCCCCCCCCCCC(=O)O)CSCC(=O)N[C@@H](Cc2ccccc2)C(=O)N[C@@H](Cc2c[nH]c3ccccc23)C(=O)N[C@@H](CC(=O)O)C1=O` (stereo in doubt) [compound 2318], the IC50 (read-out: HC CBA miPrISTA IC50) stood at 0.0213 µM.

For `CCCCCCN1CC(=O)N[C@@H](Cc2ccc(O)cc2)C(=O)N[C@@H](CCCC)C(=O)N[C@@H](CC(=O)O)C(=O)N[C@@H](CCCNC(N)=O)C(=O)N(C)[C@@H](CCCC)C(=O)N[C@@H](CCCCC)C(=O)N2CCC[C@H]2C(=O)N[C@@H](C(C)C)C(=O)N[C@@H](CC(=O)O)C(=O)N[C@H](C(=O)N[C@@H](CC(=O)O)C(N)=O)CSCC(=O)N[C@@H](Cc2ccc3ccccc3c2)C(=O)N[C@@H](Cc2ccc(O)cc2)C(=O)N[C@@H](CC(=O)O)C1=O` [Ex 1265] ({CH2CO}-[2Nal]YD[NHexGly]Y[Nle]D[Cit][NMeNle][Ahp(2)]PVDCD-NH2; thioether N-14), under setting [1], the half-inhibitory concentration (IC50) was 0.009 µM.

Take `CCCCCCN1CC(=O)N[C@@H](Cc2ccc(O)cc2)C(=O)N[C@@H](CCCC)C(=O)N[C@@H](CC(=O)O)C(=O)N[C@@H](CCCNC(=N)N)C(=O)N(C)[C@@H](CCCC)C(=O)N[C@@H](CCCCC)C(=O)N2CCC[C@H]2C(=O)N[C@@H](C(C)C)C(=O)N[C@@H](CC(=O)O)C(=O)N[C@H](C(=O)N[C@@H](CC(=O)O)C(N)=O)CSCC(=O)N[C@@H](Cc2ccc3ccccc3c2)C(=O)N[C@@H](Cc2ccc(O)cc2)C(=O)N[C@@H](CC(=O)O)C1=O` [Ex 1266] ({CH2CO}-[2Nal]YD[NHexGly]Y[Nle]DR[NMeNle][Ahp(2)]PVDCD-NH2; thioether N-14): the IC50 under setting [1] was 0.0065 µM.

`CCCCCCN1CC(=O)N[C@@H](Cc2ccc(O)cc2)C(=O)N[C@@H](CCCC)C(=O)N[C@@H](CC(=O)O)C(=O)N[C@@H](CCCNC(=N)N)C(=O)N[C@@H](CC(C)C)C(=O)N[C@@H](CCCCC)C(=O)N2CCC[C@H]2C(=O)N[C@@H](C(C)C)C(=O)N[C@@H](CC(=O)O)C(=O)N[C@H](C(=O)N[C@@H](CC(=O)O)C(N)=O)CSCC(=O)N[C@@H](Cc2ccc3ccccc3c2)C(=O)N[C@@H](Cc2ccc(O)cc2)C(=O)N[C@@H](CC(=O)O)C1=O` [Ex 1267] ({CH2CO}-[2Nal]YD[NHexGly]Y[Nle]DRL[Ahp(2)]PVDCD-NH2; thioether N-14): the IC50 under setting [1] was found to be 0.0153 µM.

With `CCCCCCN1CC(=O)N[C@@H](Cc2ccc(O)cc2)C(=O)N[C@@H](CCCC)C(=O)N[C@@H](CC(=O)O)C(=O)N[C@@H](CCCN)C(=O)N[C@@H](CC(C)C)C(=O)N[C@@H](CCCCC)C(=O)N2CCC[C@H]2C(=O)N[C@@H](C(C)C)C(=O)N[C@@H](CC(=O)O)C(=O)N[C@H](C(=O)N[C@@H](CC(=O)O)C(N)=O)CSCC(=O)N[C@@H](Cc2ccc3ccccc3c2)C(=O)N[C@@H](Cc2ccc(O)cc2)C(=O)N[C@@H](CC(=O)O)C1=O` [Ex 1268] ({CH2CO}-[2Nal]YD[NHexGly]Y[Nle]D[Orn]L[Ahp(2)]PVDCD-NH2; thioether N-14), the IC50 under setting [1] amounted to 0.0097 µM.

With `CCCCC[C@@H]1NC(=O)[C@H](CC(C)C)NC(=O)[C@H](CCCNC(=N)N)NC(=O)CNC(=O)[C@H](C(C)C)NC(=O)[C@H](Cc2ccc(O)cc2)NC(=O)CN(CCCC)C(=O)[C@H](CC(=O)O)NC(=O)[C@H](Cc2ccc(O)cc2)NC(=O)[C@H](Cc2ccc3ccccc3c2)NC(=O)CSC[C@@H](C(=O)NCC(=O)O)NC(=O)[C@H](CC(=O)O)NC(=O)[C@H](C(C)C)NC(=O)[C@@H]2CCCN2C1=O` [Ex 1269] ({CH2CO}-[2Nal]YD[NBuGly]YVGRL[Ahp(2)]PVDCG-OH; thioether N-14), under setting [1], the IC50 came to 0.0157 µM.

For the compound `CCCCC[C@@H]1NC(=O)[C@H](CC(C)C)NC(=O)[C@H](CCCNC(=N)N)NC(=O)[C@H](CC(N)=O)NC(=O)[C@H](CCCC)NC(=O)[C@H](Cc2ccc(O)cc2)NC(=O)CN(CCCC)C(=O)[C@H](CC(=O)O)NC(=O)[C@H](Cc2ccc(O)cc2)NC(=O)[C@H](Cc2ccc3ccccc3c2)NC(=O)CSC[C@@H](C(=O)NCC(=O)O)NC(=O)[C@H](CC(=O)O)NC(=O)[C@H](C(C)C)NC(=O)[C@@H]2CCCN2C1=O` [Ex 1270] ({CH2CO}-[2Nal]YD[NBuGly]Y[Nle]NRL[Ahp(2)]PVDCG-OH; thioether N-14), the IC50 under setting [1] worked out at 0.0024 µM.

For `CCCCC[C@@H]1NC(=O)[C@H](CC(C)C)NC(=O)[C@H](CCCNC(=N)N)NC(=O)[C@H](CC(N)=O)NC(=O)[C@H](CCCC)NC(=O)[C@H](Cc2ccc(O)cc2)NC(=O)CN(CCCC)C(=O)[C@H](CC(=O)O)NC(=O)[C@H](Cc2ccc(O)cc2)NC(=O)[C@H](Cc2ccc3ccccc3c2)NC(=O)CSC[C@@H](C(=O)NCC(N)=O)NC(=O)[C@H](CC(=O)O)NC(=O)[C@H](C(C)C)NC(=O)[C@@H]2CCCN2C1=O` [Ex 1271] ({CH2CO}-[2Nal]YD[NBuGly]Y[Nle]NRL[Ahp(2)]PVDCG-NH2; thioether N-14), the IC50 under setting [1] worked out at 0.008 µM.

For `CCCCCCN1CC(=O)N[C@@H](Cc2ccc(O)cc2)C(=O)N[C@@H](CCCC)C(=O)N[C@@H](CC(N)=O)C(=O)N[C@@H](CCCNC(=N)N)C(=O)N[C@@H](CC(C)C)C(=O)N[C@@H](CCCCC)C(=O)N2CCC[C@H]2C(=O)N[C@@H](C(C)C)C(=O)N[C@@H](CO)C(=O)N[C@H](C(=O)NCC(=O)O)CSCC(=O)N[C@@H](Cc2ccc3ccccc3c2)C(=O)N[C@@H](Cc2ccc(O)cc2)C(=O)N[C@@H](CC(=O)O)C1=O` [Ex 1272] ({CH2CO}-[2Nal]YD[NHexGly]Y[Nle]NRL[Ahp(2)]PVSCG-OH; thioether N-14), the IC50 under setting [1] stood at 0.0028 µM.

As for `CCCCCCN1CC(=O)N[C@@H](Cc2ccc(O)cc2)C(=O)N[C@@H](CCCCC)C(=O)NCC(=O)N[C@@H](CCCNC(=N)N)C(=O)N[C@@H](CC(C)C)C(=O)N[C@@H](CCCCC)C(=O)N2CCC[C@H]2C(=O)N[C@@H](C(C)C)C(=O)N[C@@H](CO)C(=O)N[C@H](C(=O)NCC(N)=O)CSCC(=O)N[C@@H](Cc2ccc3ccccc3c2)C(=O)N[C@@H](Cc2ccc(O)cc2)C(=O)N[C@@H](CC(=O)O)C1=O` [Ex 1273] ({CH2CO}-[2Nal]YD[NHexGly]Y[Ahp(2)]GRL[Ahp(2)]PVSCG-NH2; thioether N-14), the IC50 under setting [1] worked out at 0.0143 µM.

Regarding `CCCCCCN1CC(=O)N[C@@H](Cc2ccc(O)cc2)C(=O)N[C@@H](CC(C)C)C(=O)NCC(=O)N[C@@H](CCCNC(=N)N)C(=O)N[C@@H](CC(C)C)C(=O)N[C@@H](CCCCC)C(=O)N2CCC[C@H]2C(=O)N[C@@H](C(C)C)C(=O)N[C@@H](CO)C(=O)N[C@H](C(=O)NCC(=O)O)CSCC(=O)N[C@@H](Cc2ccc3ccccc3c2)C(=O)N[C@@H](Cc2ccc(O)cc2)C(=O)N[C@@H](CC(=O)O)C1=O` [Ex 1274] ({CH2CO}-[2Nal]YD[NHexGly]YLGRL[Ahp(2)]PVSCG-OH; thioether N-14), the IC50 under setting [1] was 0.032 µM.

In the case of `CCCCCCN1CC(=O)N[C@@H](Cc2ccc(O)cc2)C(=O)N[C@@H](CC(C)C)C(=O)NCC(=O)N[C@@H](CCCNC(=N)N)C(=O)N[C@@H](CC(C)C)C(=O)N[C@@H](CCCCC)C(=O)N2CCC[C@H]2C(=O)N[C@@H](C(C)C)C(=O)N[C@@H](CO)C(=O)N[C@H](C(=O)NCC(N)=O)CSCC(=O)N[C@@H](Cc2ccc3ccccc3c2)C(=O)N[C@@H](Cc2ccc(O)cc2)C(=O)N[C@@H](CC(=O)O)C1=O` [Ex 1275] ({CH2CO}-[2Nal]YD[NHexGly]YLGRL[Ahp(2)]PVSCG-NH2; thioether N-14), under setting [1], the IC50 was 0.0359 µM.

Turning to `CCCCCCN1CC(=O)N[C@@H](Cc2ccc(O)cc2)C(=O)N[C@@H](CCCC)C(=O)NCC(=O)N[C@@H](CCCNC(=N)N)C(=O)N[C@@H](CC(C)C)C(=O)N[C@@H](CCCCC)C(=O)N2CCC[C@H]2C(=O)N[C@@H](C(C)C)C(=O)N[C@@H](CO)C(=O)N[C@H](C(=O)NCC(N)=O)CSCC(=O)N[C@@H](Cc2ccc3ccccc3c2)C(=O)N[C@@H](Cc2ccc(O)cc2)C(=O)N[C@@H](CC(=O)O)C1=O` [Ex 1276] ({CH2CO}-[2Nal]YD[NHexGly]Y[Nle]GRL[Ahp(2)]PVSCG-NH2; thioether N-14), the IC50 under setting [1] is 0.0406 µM.
